{"source": "paper PMC9036676", "about": "(RSC Advances, 2021)", "key": {"[1]": {"biological_target": "PD-1/PD-L1 (Homo sapiens, UniProt Q9NZQ7)", "sequence (Q9NZQ7 19-238 limits assumed)": "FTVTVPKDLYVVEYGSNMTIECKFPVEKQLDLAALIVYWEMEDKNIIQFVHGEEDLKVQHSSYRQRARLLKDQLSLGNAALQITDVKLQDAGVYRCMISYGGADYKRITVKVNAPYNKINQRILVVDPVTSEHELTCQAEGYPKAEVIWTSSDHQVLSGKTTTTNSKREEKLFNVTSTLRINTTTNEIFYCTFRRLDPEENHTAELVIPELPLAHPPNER", "assay": "PD-1/PD-L1 TR-FRET assay", "assay_type": "binding", "conditions": "IC50 on PD-1/PD-L1, TR-FRET assay"}, "[2]": {"tested_on": "PD-1/PD-L1 interaction", "conditions": "read-out: IC50, inhibitory activity against the PD-1/PD-L1 interaction; cited from earlier work"}}, "note": "Positions of bridges follow the written chain, without caps; N, C: chain ends. Non-standard residues stand in square brackets, D forms with d. Residues, ends and D or L forms follow the SMILES beside them. Trp(1-CH2COOH) = N[C@@H](Cc1cn(CC(=O)O)c2ccccc12)C(=O)O; Oic = O=C(O)[C@@H]1C[C@@H]2CCCC[C@@H]2N1; Hyp = O=C(O)[C@@H]1C[C@@H](O)CN1; NMeNle = CCCC[C@H](NC)C(=O)O; Pip = O=C(O)[C@@H]1CCCCN1; NMeA = CN[C@@H](C)C(=O)O; Dab = NCC[C@H](N)C(=O)O; Dap = NC[C@H](N)C(=O)O", "data": [{"smiles": "CCCC[C@H]1C(=O)N(C)[C@@H](CCCC)C(=O)N[C@@H](CC(C)C)C(=O)N[C@H](C(=O)NCC(N)=O)CSCC(=O)N[C@@H](Cc2ccc(O)cc2)C(=O)N2CCCC[C@H]2C(=O)N[C@@H](CC(N)=O)C(=O)N2[C@@H](C[C@@H]3CCCC[C@@H]32)C(=O)N[C@@H](CN)C(=O)N[C@@H](CC(C)C)C(=O)N2C[C@H](O)C[C@H]2C(=O)N[C@@H](Cc2c[nH]c3ccccc23)C(=O)N[C@@H](CCN)C(=O)N[C@@H](Cc2cn(CC(=O)O)c3ccccc23)C(=O)N1C", "note": "[Compound 5] ({CH2CO}-Y[Pip]N[Oic][Dap]L[Hyp]W[Dab][Trp(1-CH2COOH)][NMeNle][NMeNle]LCG-NH2; thioether N-14)", "values": [{"measurement": "IC50", "setting": "[1]", "value": 14.6, "unit": "nM"}]}, {"smiles": "CCCC[C@H]1C(=O)N(C)[C@@H](CCCC)C(=O)N[C@@H](CCCNC(=N)N)C(=O)N[C@H](C(=O)NCC(N)=O)CSCC(=O)N[C@@H](Cc2ccccc2)C(=O)N(C)[C@@H](C)C(=O)N[C@@H](CC(N)=O)C(=O)N2CCC[C@H]2C(=O)N[C@@H](Cc2c[nH]cn2)C(=O)N[C@@H](CC(C)C)C(=O)N[C@@H](CO)C(=O)N[C@@H](Cc2c[nH]c3ccccc23)C(=O)N[C@@H](CO)C(=O)N[C@@H](Cc2c[nH]c3ccccc23)C(=O)N1C", "note": "[Compound 1] ({CH2CO}-F[NMeA]NPHLSWSW[NMeNle][NMeNle]RCG-NH2; thioether N-14)", "values": [{"measurement": "IC50", "setting": "[2]", "value": 9, "unit": "nM"}]}, {"smiles": "CCCC[C@H]1C(=O)N(C)[C@@H](CCCC)C(=O)N[C@@H](CC(C)C)C(=O)N[C@H](C(=O)NCC(N)=O)CSCC(=O)N[C@@H](Cc2ccccc2)C(=O)N(C)[C@@H](C)C(=O)N[C@@H](CC(N)=O)C(=O)N2CCC[C@H]2C(=O)N[C@@H](Cc2c[nH]cn2)C(=O)N[C@@H](CC(C)C)C(=O)N2C[C@H](O)C[C@H]2C(=O)N[C@@H](Cc2c[nH]c3ccccc23)C(=O)N[C@@H](CO)C(=O)N[C@@H](Cc2c[nH]c3ccccc23)C(=O)N1C", "note": "[Compound 2] ({CH2CO}-F[NMeA]NPHL[Hyp]WSW[NMeNle][NMeNle]LCG-NH2; thioether N-14)", "values": [{"measurement": "IC50", "setting": "[1]", "value": 40.1, "unit": "nM"}]}]}
